Data as given in patent US5051499A, “Novel nucleoside-phospholipid conjugate” (Toyo Jozo Kabushiki Kaisha, priority 1986, dated 1991).

tested on: P-388 leukemic cells; experiment: Antitumor activity against mouse leukemia P-388, increase in life span (ILS); assay type: in vivo; design: dose or concentration left out as unconfirmed; settings: P388, ip, 120 h, Table 2, i.p., once a day for 5 days, BDF1 mice
Experimental: Antitumor activity against mouse leukemia P-388 carcinoma is shown in the ensuring examples, according to the following list of specifications:
2. Animal: BDF1 mice, age 5 weeks, male, Charles River Inc., 5 mice in an experimental group at 7 control mice.
3. Tumor cells: P-388 leukemic cells; 1×10^6 /0.2 ml are inoculated intraperitoneally in BDF1 mice of the experimental group.
4. Preparation of samples and administration of drugs:
Samples are suspended in Tris-HCl saline solution by sonification. 0.1 ml/10g body weight is administered.
Administration: starting one day after inoculation of tumor cells, once a day for 5 days intraperiotoneally.
5. Increase in life span (ILS) is calculated by the following equation: [formula]
Average survival date in control group is 7.86 days (7.57-7.93 days).

SMILES | ILS [%]
CCCCCCCCCCCCCCCCOCC(COP(=O)(O)OC[C@H]1O[C@@H](n2cc(F)c(N)nc2=O)[C@@H](O)[C@@H]1O)OCCCCCCCCCCCCCCCC (stereo partly drawn) [cetyl cetyl AraFC] | 152
CCCCCCCCCCCCCCCCOCC(COP(=O)(O)OC[C@H]1O[C@@H](n2cc(F)c(=O)[nH]c2=O)[C@H](O)[C@@H]1O)OCCCCCCCCCCCCCCCC (stereo partly drawn) [cetyl cetyl FUR] | 127
CCCCCCCCCCCCCCCCOCC(COP(=O)(O)OCC1=C[C@@H](n2cnc3c(N)ncnc32)[C@H](O)[C@@H]1O)OCCCCCCCCCCCCCCCC (stereo partly drawn) [cetyl cetyl NepA] | 34.9
CCCCCCCC/C=C\CCCCCCCCOCC(COP(=O)(O)OC[C@H]1O[C@@H](n2cc(F)c(N)nc2=O)[C@@H](O)[C@@H]1O)OCCCCCCCC/C=C\CCCCCCCC (stereo partly drawn) [oleyl oleeyl AraFC] | 148
CCCCCCCC/C=C\CCCCCCCCOCC(COP(=O)(O)OC[C@H]1O[C@@H](n2cc(F)c(=O)[nH]c2=O)[C@H](O)[C@@H]1O)OCCCCCCCC/C=C\CCCCCCCC (stereo partly drawn) [oleyl oleyl FUR] | 76
CCCCCCCC/C=C\CCCCCCCCOCC(COP(=O)(O)OCC1=C[C@@H](n2cnc3c(N)ncnc32)[C@H](O)[C@@H]1O)OCCCCCCCC/C=C\CCCCCCCC (stereo partly drawn) [oleyl oleyl NepA] | 26
CCCCCCCCCCCCCCCCCCOCC(COP(=O)(O)OC[C@H]1O[C@@H](n2cc(F)c(N)nc2=O)[C@@H](O)[C@@H]1O)OCCCCCCCCCCCCCCCCCC (stereo partly drawn) [stearyl stearyl AraFC] | 61
CCCCCCCCCCCCCCCCCCOCC(COP(=O)(O)OC[C@H]1O[C@@H](n2cc(F)c(=O)[nH]c2=O)[C@H](O)[C@@H]1O)OCCCCCCCCCCCCCCCCCC (stereo partly drawn) [stearyl stearyl FUR] | 31
CCCCCCCCCCCCCCCCCCOCC(COP(=O)(O)OCC1=C[C@@H](n2cnc3c(N)ncnc32)[C@H](O)[C@@H]1O)OCCCCCCCCCCCCCCCCCC (stereo partly drawn) [stearyl stearyl NepA] | 31
